± gives the expanded uncertainty stated by the source.
Experiment: mn = molality of the nth substance listed, in mol/kg
Conditions: 101 kPa, Liquid

Work on `O=[N+]([O-])[O-].O=[N+]([O-])[O-].O=[N+]([O-])[O-].[Ce+3]` [cerium nitrate] + O yielded a mass density (293.15 K, m1 = 0.5112) of 1131.2 ± 0.2 kg/m3, a mass density (293.15 K, m1 = 1.031) of 1252.8 ± 0.3 kg/m3 and a mass density (293.15 K, m1 = 1.555) of 1361.9 ± 0.4 kg/m3. The mass density (293.15 K, m1 = 1.997) was 1446.2 ± 0.4 kg/m3, the mass density (293.15 K, m1 = 3.131) was 1633.2 ± 0.6 kg/m3 and the mass density (293.15 K, m1 = 3.968) was 1746.4 ± 0.6 kg/m3. The mass density (293.15 K, m1 = 4.462) was 1806 ± 0.7 kg/m3, the mass density (298.15 K, m1 = 0.5112) was 1129.3 ± 0.2 kg/m3 and the mass density (298.15 K, m1 = 1.031) was 1250.2 ± 0.3 kg/m3. It also gave a mass density (298.15 K, m1 = 1.555) of 1358.8 ± 0.3 kg/m3, a mass density (298.15 K, m1 = 1.997) of 1443.1 ± 0.4 kg/m3 and a mass density (298.15 K, m1 = 3.131) of 1629.1 ± 0.6 kg/m3. The mass density (298.15 K, m1 = 3.968) was 1742.4 ± 0.6 kg/m3, the mass density (298.15 K, m1 = 4.462) was 1801.8 ± 0.7 kg/m3 and the mass density (308.15 K, m1 = 0.5112) was 1124.7 ± 0.2 kg/m3. The mass density (308.15 K, m1 = 1.031) was 1244.4 ± 0.3 kg/m3, the mass density (308.15 K, m1 = 1.555) was 1352 ± 0.3 kg/m3 and the mass density (308.15 K, m1 = 1.997) was 1435.7 ± 0.4 kg/m3. For the same molecule, the mass density (308.15 K, m1 = 3.131) was 1620.5 ± 0.6 kg/m3, the mass density (308.15 K, m1 = 3.968) was 1733.1 ± 0.6 kg/m3 and the mass density (308.15 K, m1 = 4.462) was 1792.2 ± 0.7 kg/m3.

For `O=[N+]([O-])[O-].O=[N+]([O-])[O-].O=[N+]([O-])[O-].[La+3]` [lanthanum(III) nitrate] + O, the mass density (293.15 K, m1 = 0.4953) was 1125.6 ± 0.2 kg/m3, the mass density (293.15 K, m1 = 0.9893) was 1240.6 ± 0.3 kg/m3 and the mass density (293.15 K, m1 = 1.48) was 1343.1 ± 0.3 kg/m3. It also gave a mass density (293.15 K, m1 = 1.97) of 1436.9 ± 0.4 kg/m3, a mass density (293.15 K, m1 = 2.93) of 1595.8 ± 0.5 kg/m3 and a mass density (293.15 K, m1 = 3.9) of 1729.3 ± 0.6 kg/m3. For the same molecule, the mass density (293.15 K, m1 = 4.385) was 1787.9 ± 0.7 kg/m3, the mass density (298.15 K, m1 = 0.4953) was 1123.8 ± 0.2 kg/m3 and the mass density (298.15 K, m1 = 0.9893) was 1238.1 ± 0.3 kg/m3. For the same molecule, the mass density (298.15 K, m1 = 1.48) was 1340.1 ± 0.3 kg/m3, the mass density (298.15 K, m1 = 1.97) was 1433.6 ± 0.4 kg/m3 and the mass density (298.15 K, m1 = 2.93) was 1591.8 ± 0.5 kg/m3. For the same molecule, the mass density (298.15 K, m1 = 3.9) was 1725.3 ± 0.6 kg/m3, the mass density (298.15 K, m1 = 4.385) was 1783.8 ± 0.7 kg/m3 and the mass density (308.15 K, m1 = 0.4953) was 1119.2 ± 0.2 kg/m3. The mass density (308.15 K, m1 = 0.9893) was 1231.6 ± 0.3 kg/m3, the mass density (308.15 K, m1 = 1.48) was 1333.5 ± 0.3 kg/m3 and the mass density (308.15 K, m1 = 1.97) was 1426.3 ± 0.4 kg/m3. For the same molecule, the mass density (308.15 K, m1 = 2.93) was 1583.4 ± 0.5 kg/m3, the mass density (308.15 K, m1 = 3.9) was 1716.3 ± 0.6 kg/m3 and the mass density (308.15 K, m1 = 4.385) was 1774.6 ± 0.7 kg/m3.

`O=[N+]([O-])[O-].O=[N+]([O-])[O-].O=[N+]([O-])[O-].[Nd+3]` [neodymium(III) nitrate] + O showed a mass density (566.3 K, m1 = 0.522) of 1136.1 ± 0.4 kg/m3, a mass density (566.3 K, m1 = 1.021) of 1255.1 ± 0.5 kg/m3 and a mass density (566.3 K, m1 = 1.555) of 1369.8 ± 0.6 kg/m3. The mass density (566.3 K, m1 = 2.093) was 1474.7 ± 0.7 kg/m3, the mass density (566.3 K, m1 = 3.086) was 1642.1 ± 0.9 kg/m3 and the mass density (566.3 K, m1 = 4.124) was 1785.9 ± 1.1 kg/m3. The mass density (566.3 K, m1 = 4.297) was 1807 ± 1.1 kg/m3, the mass density (571.3 K, m1 = 0.522) was 1134.2 ± 0.4 kg/m3 and the mass density (571.3 K, m1 = 1.021) was 1252.5 ± 0.5 kg/m3. The mass density (571.3 K, m1 = 1.555) was 1366.7 ± 0.6 kg/m3, the mass density (571.3 K, m1 = 2.093) was 1471.1 ± 0.7 kg/m3 and the mass density (571.3 K, m1 = 3.086) was 1637.8 ± 0.9 kg/m3. It also gave a mass density (571.3 K, m1 = 4.124) of 1781.1 ± 1.1 kg/m3, a mass density (571.3 K, m1 = 4.297) of 1802.7 ± 1.2 kg/m3 and a mass density (581.3 K, m1 = 0.522) of 1129.6 ± 0.4 kg/m3. For the same molecule, the mass density (581.3 K, m1 = 1.021) was 1246.7 ± 0.5 kg/m3, the mass density (581.3 K, m1 = 1.555) was 1359.9 ± 0.7 kg/m3 and the mass density (581.3 K, m1 = 2.093) was 1463.5 ± 0.8 kg/m3. The mass density (581.3 K, m1 = 3.086) was 1628.8 ± 1 kg/m3, the mass density (581.3 K, m1 = 4.124) was 1771.4 ± 1.1 kg/m3 and the mass density (581.3 K, m1 = 4.297) was 1792.8 ± 1.2 kg/m3.

Work on `O=[N+]([O-])[O-].O=[N+]([O-])[O-].O=[N+]([O-])[O-].[Y+3]` [yttrium nitrate] + O yielded a mass density (293.15 K, m1 = 0.4989) of 1105.5 ± 0.2 kg/m3, a mass density (293.15 K, m1 = 0.9965) of 1202.6 ± 0.2 kg/m3 and a mass density (293.15 K, m1 = 1.497) of 1290.8 ± 0.3 kg/m3. For the same molecule, the mass density (293.15 K, m1 = 1.982) was 1368.7 ± 0.4 kg/m3, the mass density (293.15 K, m1 = 2.947) was 1502.8 ± 0.5 kg/m3 and the mass density (293.15 K, m1 = 3.945) was 1615.7 ± 0.5 kg/m3. It also gave a mass density (293.15 K, m1 = 4.957) of 1708.9 ± 0.6 kg/m3, a mass density (298.15 K, m1 = 0.2775) of 1057.4 ± 0.2 kg/m3 and a mass density (298.15 K, m1 = 0.3213) of 1066.6 ± 0.2 kg/m3. For the same molecule, the mass density (298.15 K, m1 = 0.3706) was 1076.9 ± 0.2 kg/m3, the mass density (298.15 K, m1 = 0.4172) was 1086.5 ± 0.2 kg/m3 and the mass density (298.15 K, m1 = 0.4989) was 1103.5 ± 0.2 kg/m3. For the same molecule, the mass density (298.15 K, m1 = 0.9965) was 1200.2 ± 0.2 kg/m3, the mass density (298.15 K, m1 = 1.497) was 1287.8 ± 0.3 kg/m3 and the mass density (298.15 K, m1 = 1.982) was 1365.4 ± 0.4 kg/m3. The mass density (298.15 K, m1 = 2.947) was 1498.9 ± 0.5 kg/m3, the mass density (298.15 K, m1 = 3.945) was 1611.4 ± 0.5 kg/m3 and the mass density (298.15 K, m1 = 4.957) was 1704.3 ± 0.6 kg/m3. The mass density (308.15 K, m1 = 0.4989) was 1099.2 ± 0.2 kg/m3, the mass density (308.15 K, m1 = 0.9965) was 1194.7 ± 0.2 kg/m3 and the mass density (308.15 K, m1 = 1.497) was 1281.4 ± 0.3 kg/m3. The mass density (308.15 K, m1 = 1.982) was 1358.2 ± 0.3 kg/m3, the mass density (308.15 K, m1 = 2.947) was 1490.5 ± 0.5 kg/m3 and the mass density (308.15 K, m1 = 3.945) was 1602.2 ± 0.5 kg/m3. For the same molecule, the mass density (308.15 K, m1 = 4.957) was 1694.7 ± 0.6 kg/m3.

Source: the NIST ThermoML archive (doi:10.1021/je100875a)
